Drawing on ChEMBL document CHEMBL1143011, “NMR screening applied to the fragment-based generation of inhibitors of creatine kinase exploiting a new interaction proximate to the ATP binding site” (J Med Chem, 2007), this text covers IC50, Ki and inhibition for four molecules.

Each structure is given as a SMILES string.

The target of experiment [1] is T1, Creatine kinase M-type (Oryctolagus cuniculus, UniProt P00563). In words: Inhibition of rabbit muscle creatine kinase by pH-stat assay.
In experiment [2] the target is Creatine kinase M-type (Oryctolagus cuniculus) (UniProt P00563). Description: Inhibition of rabbit muscle creatine kinase at 27.5 uM in presence of 400 uM MgATP.
Experiment [3] deals with T1, Creatine kinase M-type. Description: Inhibition of rabbit muscle creatine kinase-MgATP complex by pH-stat assay.

Creatine kinase M-type (Oryctolagus cuniculus), sequence (P00563 whole entry): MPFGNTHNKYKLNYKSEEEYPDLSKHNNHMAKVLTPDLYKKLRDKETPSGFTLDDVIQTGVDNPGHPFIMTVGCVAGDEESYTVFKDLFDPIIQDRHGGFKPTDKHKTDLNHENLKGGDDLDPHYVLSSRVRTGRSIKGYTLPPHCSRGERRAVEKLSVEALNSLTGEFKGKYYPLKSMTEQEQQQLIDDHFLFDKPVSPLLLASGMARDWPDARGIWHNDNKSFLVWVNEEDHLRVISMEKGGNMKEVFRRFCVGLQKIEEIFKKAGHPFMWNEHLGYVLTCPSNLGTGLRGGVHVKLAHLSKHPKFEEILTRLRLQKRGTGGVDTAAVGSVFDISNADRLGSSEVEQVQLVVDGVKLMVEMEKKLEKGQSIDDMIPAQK
T1 sequence (P00563 whole entry): as above

What is called IC50 is the concentration that inhibits the measured activity by half. Read a high IC50 as weaker potency in that assay. For orientation: Ki means the equilibrium dissociation constant of an inhibitor or competing ligand from its target. As a reminder, the inhibition is how much of the control response was suppressed. At Creatine kinase M-type [1], `O=C(Nc1ccc(C(=O)c2ccccc2)cc1)c1ccc(-c2ccc(C(=O)O)o2)cc1` registered an IC50 of 50 µM and a Ki of 25 µM. Further, the inhibition in experiment [2] turned out to be 35%. In addition, the affinity on Creatine kinase M-type [3] corresponds to a Ki of 70 µM. For the molecule `O=C(c1ccccc1)c1ccc(-c2ccc(-c3ccc(C(=O)O)o3)cc2)cc1`, the inhibition in experiment [2] was 63%. On the same count and under the same terms, to `O=C(NCc1ccc(-c2ccccc2)cc1)c1ccc(-c2ccc(C(=O)O)o2)cc1` belongs 63%. Still for that read-out and setting: in the case of `O=C(NCc1ccccc1)c1ccc(-c2ccc(C(=O)O)o2)cc1` it was 20%.
